The values below come from ChEMBL document CHEMBL1857833, “Screening and optimization of specific chemical series against human African Trypanosomiasis (HAT)”.

Converted amounts (≈) assume the structure as drawn.

The nature of data set [1]: DNDI: Solubility in phosphate buffered saline at pH7.4 measured by nephelometry at room temperature (NEPH-RT). The conditions noted are these: pH 7.4. The data set is classed as physicochemical.
For another data set, the system named is Trypanosoma brucei. Nature of the data set: DNDI: Inhibition of Human African Trypanosomiasis, SBRI 427, in vitro. The conditions noted are these: Trypanosoma brucei, SBRI 427; read-out: IC50. The data set is classed as functional, organism-based.
Data set [2] is described as follows: DNDI: Cytotoxicity against L929 mouse fibroblasts, 72 hour. In kind it is toxicity, cell-based. The conditions noted are these: mouse, L929 mouse fibroblasts.
A short description of data set [3]: DNDI: Lipophilicity measured in Chromatographic hydrophobicity index (CHI) assay, pH 7.4. In kind it is physicochemical. The conditions noted are these: buffer.
A short description of data set [4]: DNDI: Cytotoxicity against L929 mouse fibroblasts, CYTO-SP, 24 hour. In kind it is toxicity, cell-based. The conditions noted are these: mouse, L929 mouse fibroblasts.
The next data set in a line: in vitro. To be noted: mouse, liver microsomes, t (1 / 2). In general terms: Microsomes from liver hold many membrane-bound enzymes, among them those of drug oxidation.
The conditions of data set [5]: mouse, microsomes, 1 µM.
Description: DNDI: in vitro intrinsic clearance in mouse liver microsomes at a concentration of 1uM

Description for in vitro: DNDI: half life in mouse liver microsomes at a concentration of 1uM

Consider `COc1ccc(/C(=N/O)Nc2cccc(C#N)c2)cc1`, for which the kinetic solubility (as a rule, the concentration staying in solution when a stock, usually in DMSO, is diluted into the medium) in data set [1] was determined as 50 µM (≈ 13.4 µg/mL). Moreover, the IC50 (commonly the point on the concentration scale where inhibition reaches its midpoint) in the data set with Trypanosoma brucei was over 5 µg/mL. In data set [2], this compound yielded an IC50 at 72 h of over 10 µg/mL. Further, the chromatographic logD (as a rule, a lipophilicity value derived from retention on a column) in data set [3] came to 2.41.

In data set [4], `Cc1cccc(C)c1/C(=N/O)NC1CCCCC1` had an IC50 at 24 h of over 50 µg/mL. For the same compound, the half-life (usually the time needed for the level to fall by half in the phase considered) at 1 µM in the data set “in vitro” came out at 11 min. For the same compound, the IC50 with Trypanosoma brucei is over 5 µg/mL. The compound further displayed a CLint in vitro in data set [5] of 76 µL/min/mg.

`CCCCCC(C)NCc1coc(-c2ccc(Oc3ccc(C)cc3)cc2)n1` (stereo not drawn): the half-life at 1 µM in the data set “in vitro” stood at 70 min. Moreover, in the data set on Trypanosoma brucei, the IC50 turned out to be 0.3 µg/mL (≈ 0.793 µM). The compound also yielded an IC50 at 72 h in data set [2] of 1.42 µg/mL (≈ 3.75 µM). In data set [5], this compound had a CLint in vitro of 12 µL/min/mg.

`CC(C)(C)c1ccc(Oc2ncccc2/C(=N/O)NC2CCCCC2)cc1` had a half-life at 1 µM in the data set “in vitro” of 9 min. The compound further returned a kinetic solubility in data set [1] of 13 µM (≈ 4.78 µg/mL). Moreover, the IC50 in the data set with Trypanosoma brucei came to 0.07 µg/mL (≈ 0.19 µM). Further, the IC50 at 72 h in data set [2] was over 10 µg/mL. The compound further had a CLint in vitro in data set [5] of 95 µL/min/mg.

With `COc1ccccc1CNC(c1nc(-c2ccccc2)c(N2CCOCC2)o1)C1CC1` (stereo not drawn), in “in vitro”, the half-life at 1 µM stood at 3 min. Besides, in the data set with Trypanosoma brucei, the IC50 stood at 5 µg/mL (≈ 11.9 µM). In data set [2], this compound showed an IC50 at 72 h of over 10 µg/mL. The compound further showed a CLint in vitro in data set [5] of 300 µL/min/mg.

The compound `Cc1ccc(CNC(c2nc(Cc3ccccc3)c(N3CCOCC3)o2)C2CCCCC2)cc1` (stereo not drawn) returned a half-life at 1 µM in “in vitro” of 4 min. The same compound registered a kinetic solubility in data set [1] of 3 µM (≈ 1.38 µg/mL). Further, in the data set on Trypanosoma brucei, the IC50 stood at 2.45 µg/mL (≈ 5.33 µM). The IC50 at 72 h in data set [2] is over 10 µg/mL. In data set [5], the CLint in vitro is 236 µL/min/mg.

`COc1ccc(N/C(=N/O)c2ccccc2-c2ccccc2)cc1` returned an IC50 at 24 h in data set [4] of over 50 µg/mL. Moreover, in “in vitro”, the half-life at 1 µM amounted to 5 min. The IC50 in the data set on Trypanosoma brucei is over 5 µg/mL. Besides, the CLint in vitro in data set [5] is 166 µL/min/mg.

In data set [4], `CCCCCC(C)NCc1coc(-c2ccc(OCCC)cc2)n1` (stereo not drawn) had an IC50 at 24 h of 27.5 µg/mL (≈ 83.4 µM). This compound gave a half-life at 1 µM in the data set “in vitro” of 27 min. Moreover, in the data set with Trypanosoma brucei, the IC50 stood at 0.54 µg/mL (≈ 1.63 µM). The compound further displayed an IC50 at 72 h in data set [2] of under 3.13 µg/mL. The compound further yielded a CLint in vitro in data set [5] of 31 µL/min/mg.

Consider `CCCCCC(C)NCc1coc(-c2ccc(OCCc3ccccc3)cc2)n1` (stereo not drawn), for which the half-life at 1 µM in the data set “in vitro” was determined as 22 min. Also, the IC50 in the data set on Trypanosoma brucei came out at 0.39 µg/mL (≈ 0.994 µM). The compound also registered an IC50 at 72 h in data set [2] of 0.72 µg/mL (≈ 1.83 µM). The same compound displayed a CLint in vitro in data set [5] of 39 µL/min/mg.

In turn, `CCc1ccccc1/C(=N\O)NC1CCCCC1` showed an IC50 at 24 h in data set [4] of over 50 µg/mL. Also, the half-life at 1 µM in “in vitro” amounted to 7 min. In addition, in the data set with Trypanosoma brucei, the half-inhibitory concentration (IC50) came out at 3.58 µg/mL (≈ 14.5 µM). The compound also returned a CLint in vitro in data set [5] of 128 µL/min/mg.

Consider `CCCCCC(C)NCc1coc(-c2ccc(OCc3ccc(C)cc3)cc2)n1` (stereo not drawn), for which the half-life at 1 µM in the data set “in vitro” was found to be 64 min. The IC50 in the data set with Trypanosoma brucei was found to be 0.31 µg/mL (≈ 0.79 µM). In data set [2], this compound showed an IC50 at 72 h of 1.27 µg/mL (≈ 3.24 µM). The CLint in vitro in data set [5] worked out at 13 µL/min/mg.

In the data set “in vitro”, `CCC(C)C(NCc1ccc(C)cc1)c1nc(Cc2ccccc2)c(N2CCOCC2)o1` (stereo not drawn) came in with a half-life at 1 µM of 2 min. The compound further yielded a kinetic solubility in data set [1] of 6 µM (≈ 2.6 µg/mL). Moreover, the IC50 in the data set with Trypanosoma brucei stood at 2.61 µg/mL (≈ 6.02 µM). In addition, in data set [2], the IC50 at 72 h was over 10 µg/mL. In addition, the CLint in vitro in data set [5] stood at 378 µL/min/mg.

Consider `CCCCCC(C)NCc1coc(-c2ccc(Oc3ccc(F)cc3)cc2)n1` (stereo not drawn), for which the half-life at 1 µM in the data set “in vitro” was determined as 63 min. For the same compound, the half-maximal inhibitory concentration (IC50) in the data set with Trypanosoma brucei came to 0.44 µg/mL (≈ 1.15 µM). In data set [2], this compound displayed an IC50 at 72 h of 1.63 µg/mL (≈ 4.26 µM). Further, the CLint in vitro in data set [5] was 13 µL/min/mg.

Compound `CCCCCC(C)NCc1coc(-c2ccc(OCC(C)(C)C)cc2)n1` (stereo not drawn) returned a half-life at 1 µM in the data set “in vitro” of 70 min. Moreover, in data set [1], the solubility (kinetic) is 6 µM (≈ 2.15 µg/mL). In addition, the IC50 in the data set with Trypanosoma brucei worked out at 0.19 µg/mL (≈ 0.53 µM). In addition, it took 0.65 µg/mL (≈ 1.81 µM) to reach half-maximal inhibition in data set [2] (IC50 at 72 h). In data set [5], this compound came in with a CLint in vitro of 12 µL/min/mg.

In turn, `CCCCCC(C)NCc1coc(-c2ccc(OCCCC)c(F)c2)n1` (stereo not drawn) returned a half-life at 1 µM in the data set “in vitro” of 75 min. Further, in the data set with Trypanosoma brucei, the IC50 stood at 0.37 µg/mL (≈ 1.02 µM). In addition, half-maximal inhibition in data set [2] (IC50 at 72 h) was put at 0.73 µg/mL (≈ 2.01 µM). The same compound displayed a CLint in vitro in data set [5] of 11 µL/min/mg.

In turn, `CCCCCC(C)NCc1coc(-c2ccc(OCc3ccccc3)cc2)n1` (stereo not drawn) came in with a half-life at 1 µM in “in vitro” of 97 min. Moreover, the kinetic solubility in data set [1] was 1 µM (≈ 0.379 µg/mL). Further, the half-maximal inhibitory concentration (IC50) in the data set on Trypanosoma brucei turned out to be 0.55 µg/mL (≈ 1.45 µM). Besides, the IC50 at 72 h in data set [2] turned out to be 1.41 µg/mL (≈ 3.73 µM). In data set [5], this compound displayed a CLint in vitro of 9 µL/min/mg.

On to `COc1ccc(N/C(=N/O)c2ccc(OC)cc2)cc1`, for which the IC50 at 24 h in data set [4] was over 50 µg/mL. Moreover, in “in vitro”, the half-life at 1 µM came to 2 min. For the same compound, in the data set on Trypanosoma brucei, the IC50 was over 5 µg/mL. The compound also came in with a CLint in vitro in data set [5] of 376 µL/min/mg.

`CCCCCC(C)NCc1coc(-c2ccc(OCc3ccc(Cl)cc3)cc2)n1` (stereo not drawn) gave a half-life at 1 µM in “in vitro” of 41 min. Further, in the data set on Trypanosoma brucei, the IC50 is 0.47 µg/mL (≈ 1.14 µM). The same compound came in with an IC50 at 72 h in data set [2] of 1.67 µg/mL (≈ 4.04 µM). In data set [5], this compound registered a CLint in vitro of 21 µL/min/mg.

As to `CCCCCOc1ccc(-c2nc(CNC3CCCCCC3)co2)cc1`, in data set [4], inhibition was half-maximal at 29.5 µg/mL (≈ 82.8 µM) (IC50 at 24 h). In the data set “in vitro”, this compound showed a half-life at 1 µM of 101 min. Besides, in the data set with Trypanosoma brucei, the IC50 came to 0.25 µg/mL (≈ 0.701 µM). Also, the half-inhibitory concentration (IC50) at 72 h in data set [2] is under 3.13 µg/mL. Further, in data set [5], the CLint in vitro was 8 µL/min/mg.

In the data set “in vitro”, `CCCCCC(C)NCc1coc(-c2ccc(C(C)C)cc2)n1` (stereo not drawn) yielded a half-life at 1 µM of 24 min. This compound registered a kinetic solubility in data set [1] of 3 µM (≈ 0.943 µg/mL). Moreover, in the data set on Trypanosoma brucei, the IC50 amounted to 0.6 µg/mL (≈ 1.91 µM). In data set [2], this compound displayed an IC50 at 72 h of 1.33 µg/mL (≈ 4.23 µM). The same compound displayed a CLint in vitro in data set [5] of 36 µL/min/mg.
